# Assay results: US20230053540A1, “TREATMENT OF LIVER INJURY” (Massachusetts Institute of Technology, priority 2019, published 2023)
# System: hepatocytes
# Assay: Seq-Well scRNA-Seq of hepatocytes after APAP overdose (signature scores, DEG vs untreated)
# Assay type: in vivo, mouse
# [1] = cluster A96, DEG between treatment (APAP and PH)
# [2] = fraction of A96 (APAP, 96 h) hepatocytes expressing the gene
# [3] = hepatocyte cluster A96 (APAP, 96 h) vs all other clusters
structure (smiles),measurement,setting,value
"CC(=O)Nc1ccc(O)cc1 [APAP, acetaminophen]","avg_logFC, gene Decr2",[1],0.3018
same,"avg_logFC, gene Dhdh",[1],0.2626
same,"avg_logFC, gene Etfdh",[1],0.2639
same,"avg_logFC, gene Etnppl",[1],0.3154
same,"avg_logFC, gene F5",[1],0.2566
same,"avg_logFC, gene Fmo1",[1],0.265
same,"avg_logFC, gene G0s2",[1],0.2656
same,"avg_logFC, gene G6pc",[1],0.2541
same,"avg_logFC, gene Gabarapl1",[1],0.2932
same,"avg_logFC, gene Gadd45b",[1],0.2598
same,"avg_logFC, gene Gas5",[1],0.2823
same,"avg_logFC, gene Gm4952",[1],0.2581
same,"avg_logFC, gene Gsta2",[1],0.311
same,"avg_logFC, gene Gstt3",[1],0.3026
same,"avg_logFC, gene Gyk",[1],0.3134
same,"avg_logFC, gene Hmgcl",[1],0.2744
same,"avg_logFC, gene Hmgcs1",[1],0.3251
same,"avg_logFC, gene Hpgd",[1],0.3412
same,"avg_logFC, gene Hsd17b7",[1],0.3028
same,"avg_logFC, gene Hsd17b10",[1],0.2802
same,"avg_logFC, gene Igfbp1",[1],0.2603
same,"avg_logFC, gene Kif1b",[1],0.2961
same,"avg_logFC, gene Lcat",[1],0.2616
same,"avg_logFC, gene Mia3",[1],0.2604
same,"avg_logFC, gene Ndufa3",[1],0.2743
same,"avg_logFC, gene Ndufa7",[1],0.26
same,"avg_logFC, gene Nr1i3",[1],0.3481
same,"avg_logFC, gene Oat",[1],0.4904
same,"avg_logFC, gene Pon1",[1],0.2899
same,"avg_logFC, gene Por",[1],0.2867
same,"avg_logFC, gene Ppp1r3b",[1],0.251
same,"avg_logFC, gene Ppp2r5a",[1],0.3505
same,"avg_logFC, gene Ptms",[1],0.2863
same,"avg_logFC, gene Pxmp4",[1],0.2555
same,"avg_logFC, gene Rdh16",[1],0.3477
same,"avg_logFC, gene Rdx",[1],0.2566
same,"avg_logFC, gene Rgn",[1],0.3686
same,"avg_logFC, gene Sc4mol",[1],0.3361
same,"avg_logFC, gene Slc4a4",[1],0.2977
same,"avg_logFC, gene Slc25a20",[1],0.2507
same,"avg_logFC, gene Slco1a4",[1],0.3049
same,"avg_logFC, gene Snord118",[1],0.3782
same,"avg_logFC, gene Tgoln1",[1],0.2809
same,"avg_logFC, gene Tmed5",[1],0.2523
same,"avg_logFC, gene Tobi",[1],0.2958
same,"avg_logFC, gene Tsc22d3",[1],0.3363
same,"avg_logFC, gene Zfp36l1",[1],0.2964
same,"avg_logFC, gene Zfp91",[1],0.2775
same,pct.1 8430408G22Rik,[2],0.559
same,pct.1 Acot12,[2],0.65
same,pct.1 Agpat6,[2],0.743
same,pct.1 Aplp2,[2],0.826
same,pct.1 Apoc2,[2],0.901
same,pct.1 Apol7a,[2],0.559
same,pct.1 Aqp9,[2],0.801
same,pct.1 Arl4a,[2],0.517
same,pct.1 Brap,[2],0.642
same,pct.1 Cd36,[2],0.299
same,pct.1 Cebpb,[2],0.585
same,pct.1 Cede107,[2],0.59
same,pct.1 Ces1e,[2],0.71
same,pct.1 Ces1f,[2],0.895
same,pct.1 Cisd1,[2],0.781
same,pct.1 Cpeb4,[2],0.527
same,pct.1 Cpox,[2],0.634
same,pct.1 Cxcl12,[2],0.635
same,pct.1 D4Wsu53e,[2],0.597
same,pct.1 D17Wsu92e,[2],0.771
same,pct.1 Dcxr,[2],0.735
same,pct.1 Dhdh,[2],0.734
same,pct.1 Ech1,[2],0.917
same,pct.1 Ehhadh,[2],0.78
same,pct.1 Ephx1,[2],0.879
same,pct.1 Etfdh,[2],0.811
same,pct.1 Etnppl,[2],0.677
same,pct.1 Fmo1,[2],0.606
same,pct.1 Gclm,[2],0.865
same,pct.1 Hamp2,[2],0.203
same,pct.1 Hsd17b7,[2],0.56
same,pct.1 Lcat,[2],0.886
same,pct.1 Mocs2,[2],0.737
same,pct.1 Mtdh,[2],0.649
same,pct.1 Ndufa3,[2],0.737
same,pct.1 Ndufb2,[2],0.731
same,pct.1 Nfe2l2,[2],0.465
same,pct.1 Oat,[2],0.653
same,pct.1 Pabpc1,[2],0.766
same,pct.1 Pdk1,[2],0.438
same,pct.1 Prkd3,[2],0.682
same,pct.1 Ptp4a2,[2],0.691
same,pct.1 Rgn,[2],0.899
same,pct.1 Sdhc,[2],0.76
same,pct.1 Sdhd,[2],0.775
same,pct.1 Slc4a4,[2],0.609
same,pct.1 Slc25a10,[2],0.701
same,pct.1 Tgoln1,[2],0.756
same,pct.1 Tmed5,[2],0.714
same,pct.1 Tmem106b,[2],0.727
same,pct.1 Tob1,[2],0.649
same,pct.1 Tsc22d3,[2],0.534
same,pct.1 Usmg5,[2],0.59
same,pct.1 Zfp91,[2],0.693
same,pct.1 Atp2a2,"gene Atp2a2, time point A96",0.64
same,avg_logFC Atp2a2,"gene Atp2a2, time point A96 vs untreated (UT)",0.2537
same,pct.1 Csad,"gene Csad, time point A96",0.843
same,avg_logFC Csad,"gene Csad, time point A96 vs untreated (UT)",0.2906
same,pct.1 Eef1b2,"gene Eef1b2, time point A96",0.743
same,avg_logFC Eef1b2,"gene Eef1b2, time point A96 vs untreated (UT)",−0.2686
same,pct.1 Etnppl,"gene Etnppl, time point A96",0.677
same,avg_logFC Etnppl,"gene Etnppl, time point A96 vs untreated (UT)",0.407
same,pct.1 Fos,"gene Fos, time point A96",0.619
same,avg_logFC Fos,"gene Fos, time point A96 vs untreated (UT)",0.3272
same,pct.1 Ftl1,"gene Ftl1, time point A96",0.363
same,avg_logFC Ftl1,"gene Ftl1, time point A96 vs untreated (UT)",−0.2798
same,pct.1 Gm20594,"gene Gm20594, time point A96",0.262
same,avg_logFC Gm20594,"gene Gm20594, time point A96 vs untreated (UT)",−0.2928
same,pct.1 Hes6,"gene Hes6, time point A96",0.33
same,avg_logFC Hes6,"gene Hes6, time point A96 vs untreated (UT)",−0.2781
same,pct.1 Hsd3b3,"gene Hsd3b3, time point A96",0.499
same,avg_logFC Hsd3b3,"gene Hsd3b3, time point A96 vs untreated (UT)",−0.313
same,pct.1 Hsd17b2,"gene Hsd17b2, time point A96",0.614
same,avg_logFC Hsd17b2,"gene Hsd17b2, time point A96 vs untreated (UT)",−0.3005
same,pct.1 Hsd17b13,"gene Hsd17b13, time point A96",0.755
same,avg_logFC Hsd17b13,"gene Hsd17b13, time point A96 vs untreated (UT)",0.2678
same,pct.1 Ifi27,"gene Ifi27, time point A96",0.325
same,avg_logFC Ifi27,"gene Ifi27, time point A96 vs untreated (UT)",−0.2572
same,pct.1 Ifitm3,"gene Ifitm3, time point A96",0.742
same,avg_logFC Ifitm3,"gene Ifitm3, time point A96 vs untreated (UT)",−0.2797
same,pct.1 Krt8,"gene Krt8, time point A96",0.47
same,avg_logFC Krt8,"gene Krt8, time point A96 vs untreated (UT)",−0.265
same,pct.1 Malat1,"gene Malat1, time point A96",0.702
same,avg_logFC Malat1,"gene Malat1, time point A96 vs untreated (UT)",−0.4647
same,pct.1 Mup2,"gene Mup2, time point A96",0.256
same,avg_logFC Mup2,"gene Mup2, time point A96 vs untreated (UT)",−0.5008
same,pct.1 Mup4,"gene Mup4, time point A96",0.824
same,avg_logFC Mup4,"gene Mup4, time point A96 vs untreated (UT)",−0.6934
same,pct.1 Naa50,"gene Naa50, time point A96",0.517
same,avg_logFC Naa50,"gene Naa50, time point A96 vs untreated (UT)",0.2658
same,pct.1 Ndufb11,"gene Ndufb11, time point A96",0.669
same,avg_logFC Ndufb11,"gene Ndufb11, time point A96 vs untreated (UT)",−0.2832
same,pct.1 Nme1,"gene Nme1, time point A96",0.561
same,avg_logFC Nme1,"gene Nme1, time point A96 vs untreated (UT)",−0.2724
same,pct.1 Oat,"gene Oat, time point A96",0.653
same,avg_logFC Oat,"gene Oat, time point A96 vs untreated (UT)",0.3439
same,pct.1 Pnpla7,"gene Pnpla7, time point A96",0.455
same,avg_logFC Pnpla7,"gene Pnpla7, time point A96 vs untreated (UT)",−0.3397
same,pct.1 Prdx4,"gene Prdx4, time point A96",0.517
same,avg_logFC Prdx4,"gene Prdx4, time point A96 vs untreated (UT)",−0.314
same,pct.1 Psmb1,"gene Psmb1, time point A96",0.703
same,avg_logFC Psmb1,"gene Psmb1, time point A96 vs untreated (UT)",−0.2659
same,pct.1 Psmb5,"gene Psmb5, time point A96",0.241
same,avg_logFC Psmb5,"gene Psmb5, time point A96 vs untreated (UT)",−0.2633
same,pct.1 Rarres1,"gene Rarres1, time point A96",0.274
same,avg_logFC Rarres1,"gene Rarres1, time point A96 vs untreated (UT)",−0.2874
same,pct.1 Rgn,"gene Rgn, time point A96",0.899
same,avg_logFC Rgn,"gene Rgn, time point A96 vs untreated (UT)",0.2614
same,pct.1 Rpl32,"gene Rpl32, time point A96",0.689
same,avg_logFC Rpl32,"gene Rpl32, time point A96 vs untreated (UT)",−0.2631
same,pct.1 Rpl41,"gene Rpl41, time point A96",0.274
same,avg_logFC Rpl41,"gene Rpl41, time point A96 vs untreated (UT)",−0.2575
same,pct.1 Rps8,"gene Rps8, time point A96",0.378
same,avg_logFC Rps8,"gene Rps8, time point A96 vs untreated (UT)",−0.2585
same,pct.1 Rps15,"gene Rps15, time point A96",0.468
same,avg_logFC Rps15,"gene Rps15, time point A96 vs untreated (UT)",−0.2545
same,pct.1 Selk,"gene Selk, time point A96",0.393
same,avg_logFC Selk,"gene Selk, time point A96 vs untreated (UT)",−0.2647
same,pct.1 Serp1,"gene Serp1, time point A96",0.671
same,avg_logFC Serp1,"gene Serp1, time point A96 vs untreated (UT)",−0.2992
same,pct.1 Ubb,"gene Ubb, time point A96",0.379
same,avg_logFC Ubb,"gene Ubb, time point A96 vs untreated (UT)",−0.2685
same,pct.1 mmu-mir-6236,"gene mmu-mir-6236, time point A96",0.801
same,avg_logFC mmu-mir-6236,"gene mmu-mir-6236, time point A96 vs untreated (UT)",−0.6272
same,pct.1 mt-Atp6,"gene mt-Atp6, time point A96",0.43
same,avg_logFC mt-Atp6,"gene mt-Atp6, time point A96 vs untreated (UT)",−0.3955
same,avg_logFC 8430408G22Rik,[3],0.2774
same,avg_logFC Acot12,[3],0.2802
same,avg_logFC Agpat6,[3],0.2753
same,avg_logFC Aplp2,[3],0.2569
same,avg_logFC Apoc2,[3],0.2872
same,avg_logFC Apol7a,[3],0.3029
same,avg_logFC Aqp9,[3],0.2901
same,avg_logFC Arl4a,[3],0.2934
same,avg_logFC Brap,[3],0.2572
same,avg_logFC Cd36,[3],0.2782
same,avg_logFC Cebpb,[3],0.2515
same,avg_logFC Cede107,[3],0.2626
same,avg_logFC Ces1e,[3],0.3109
same,avg_logFC Ces1f,[3],0.2782
same,avg_logFC Cisd1,[3],0.282
same,avg_logFC Cpeb4,[3],0.2994
same,avg_logFC Cpox,[3],0.2562
same,avg_logFC Crls1,[3],0.255
same,avg_logFC Cxcl12,[3],0.3005
same,avg_logFC D4Wsu53e,[3],0.2925
same,avg_logFC D17Wsu92e,[3],0.258
same,avg_logFC Dcxr,[3],0.2522
same,avg_logFC Dhdh,[3],0.2593
same,avg_logFC Ech1,[3],0.2509
same,avg_logFC Ehhadh,[3],0.2545
same,avg_logFC Ephx1,[3],0.252
same,avg_logFC Etfdh,[3],0.2768
same,avg_logFC Etnppl,[3],0.411
